Assays:
AnUGP = target: T1, AnUGP (Aspergillus nidulans, UniProt C8VK50); assay: malachite green phosphate assay coupled to inorganic pyrophosphatase; assay type: biochemical; conditions: 0.25 mM UTP, 0.25 mM Glc-1-P, 2 mM MgCl2, 100 mM NaCl, 50 mM Tris-HCl pH 7.5, 30 °C
T1 construct: gene ANIA_09148; homooctamer
T1 sequence (C8VK50 1-514): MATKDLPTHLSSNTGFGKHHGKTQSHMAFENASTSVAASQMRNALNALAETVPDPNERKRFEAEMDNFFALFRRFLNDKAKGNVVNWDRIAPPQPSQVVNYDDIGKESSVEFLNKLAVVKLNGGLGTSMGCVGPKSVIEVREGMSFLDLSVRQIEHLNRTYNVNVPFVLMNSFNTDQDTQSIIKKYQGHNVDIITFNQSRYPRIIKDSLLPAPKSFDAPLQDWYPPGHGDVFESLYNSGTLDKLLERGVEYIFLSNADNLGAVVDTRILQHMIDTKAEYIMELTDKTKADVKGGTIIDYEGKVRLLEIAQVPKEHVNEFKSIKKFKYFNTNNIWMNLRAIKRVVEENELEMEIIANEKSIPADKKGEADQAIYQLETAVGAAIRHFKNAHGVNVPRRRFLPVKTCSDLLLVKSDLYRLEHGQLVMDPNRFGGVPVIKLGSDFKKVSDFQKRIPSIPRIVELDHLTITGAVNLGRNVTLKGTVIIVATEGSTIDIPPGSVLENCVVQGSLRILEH

[1] = target: UDP-glucose pyrophosphorylase from Aspergillus nidulans (Aspergillus nidulans); assay: SEC; Superose 6 GL 10/300 in buffer A (50 mM Tris, 200 mM NaCl, 2 mM β-mercaptoethanol, pH 7.8); peak around 14.5 mL
[2] = target: UDP-glucose pyrophosphorylase from Aspergillus nidulans (Aspergillus nidulans); assay: cryo-EM structure; native AnUGP in buffer A at 0.18 mg/mL, vitrified on Quantifoil R1.2/1.3 grids; Titan Krios 300 kV; C1, D4 and locally refined maps; 3D variability analysis

Molecule	malachite green phosphate assay coupled to inorganic pyrophosphatase (AnUGP)	stoichiometry N [1]	stoichiometry N [2]
O=P(O)(O)O[C@H]1O[C@H](CO)[C@@H](O)[C@H](O)[C@H]1O [Glc-1-P]	AnUGP catalyzes the condensation reaction between UTP and Glc-1-P to produce UDP-Glc and PPi		
O=c1ccn([C@@H]2O[C@H](COP(=O)(O)OP(=O)(O)OP(=O)(O)O)[C@@H](O)[C@H]2O)c(=O)[nH]1 [UTP]	the enzyme was specific for UTP and unable to use ATP or GTP		
UDP-glucose pyrophosphorylase from Aspergillus nidulans (enzyme)		8	8

Source: paper PMC10470519, “CryoEM analysis of the essential native UDP-glucose pyrophosphorylase from Aspergillus nidulans reveals key conformations for activity regulation and function” (mBio, 2023)
